Data: patent US10550089B2, “Inhibitors of protease-activated receptor-2” (Heptares Therapeutics Limited, priority 2016, dated 2020)

Columns and labels:
[1] = target: T1, PAR2 (Homo sapiens (Human), UniProt P55085); assay: Trypsin activated FLPR Ca2+ mobilization assay for PAR2 antagonist activity; format: cell-based
Description: Trypin Activated FLPR Assay:
Protocol for Testing Compounds for PAR2 Antagonist Activity Using a Ca2+ Mobilization Assay
Calcium mobilization was measured using 1321N1 cells stably expressing human PAR2. Cells were seeded in 384-well plates at 4,000 cells per well in 20 μl DMEM with Glutamax supplemented with 10% FBS and incubated for 18-24 h at 37° C., 5% CO2 and 95% humidity. […] The addition was done using a FLIPR^TETRA (384-well head, Molecular Devices) and the response was read simultaneously to detect any agonist activity.

[2] = target: T1, PAR2; assay: IP-One HTRF assay for PAR2 antagonist activity (IP1 production); format: cell-based
Description: Protocol for Testing Compounds for PAR2 Antagonist Activity Using an IP-One HTRF Assay
Inositol monophosphate (IP1) production were measured in 1321N1 cells stably expressing human PAR2 using an IP-One HTRF assay kit (Cisbio). […] After 60 min at 37° C. cells were lysed and IP1 concentrations were detected according to the manufacturers protocol (Cisbio). Data were normalized to IP1 concentrations using a IP1 standard curve according to the manufacturers protocol (Cisbio).

[3] = 1321N1 cells stably expressing human PAR2, agonist Trypsin, Vorapaxar present to block PAR1, read-out: hPAR2 FLPR (Trypsin) IC50
[4] = 1321N1 cells stably expressing human PAR2, agonist SLIGRL-NH2, read-out: hPAR2 IPpone IC50
[5] = hPAR2 FLPR (Trypsin) IC50 (μM), 1321N1 cells stably expressing human PAR2, agonist Trypsin, Vorapaxar present to block PAR1
[6] = hPAR2 IPpone IC50 (μM), 1321N1 cells stably expressing human PAR2, agonist SLIGRL-NH2

T1 sequence (P55085 26-397): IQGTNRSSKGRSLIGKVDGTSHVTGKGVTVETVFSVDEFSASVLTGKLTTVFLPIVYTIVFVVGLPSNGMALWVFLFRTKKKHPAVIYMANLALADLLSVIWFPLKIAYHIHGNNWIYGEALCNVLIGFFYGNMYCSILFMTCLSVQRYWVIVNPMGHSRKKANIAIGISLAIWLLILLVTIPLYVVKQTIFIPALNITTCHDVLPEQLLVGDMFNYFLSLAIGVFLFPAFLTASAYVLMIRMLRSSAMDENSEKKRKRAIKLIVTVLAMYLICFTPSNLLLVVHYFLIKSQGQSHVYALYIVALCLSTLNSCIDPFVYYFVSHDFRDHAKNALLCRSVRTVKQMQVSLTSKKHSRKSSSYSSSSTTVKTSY

**Q.** What does the source list for `CCCc1c(C(O)c2ncc[nH]2)ccc(F)c1F` (single isomer, unassigned) [Example 11, (3,4-Difluoro-2-propylphenyl)(1H-imidazol-2-yl)methanol]?
**A.** IC50 [1, 3]: > 77 µM; IC50 [2, 4]: > 41 µM

**Q.** Which IC50 [1, 3] does the source give for `CCCc1c(C(O)c2ncc[nH]2)ccc(F)c1F` (single isomer, unassigned) [Example 12, (3,4-Difluoro-2-propylphenyl)(1H-imidazol-2-yl)methanol] here?
**A.** 4.9 µM

**Q.** And the IC50 [2, 4]?
**A.** 4 µM

**Q.** `OC(c1ncc[nH]1)c1ccc(F)cc1N1CCCC1` (single isomer, unassigned) [Example 15, (4-Fluoro-2-(pyrrolidin-1-yl)phenyl)(1H-imidazol-2-yl)methanol] was tested. Which IC50 ([1]; hPAR2 FLPR (Trypsin) IC50 (μM)) did it give?
**A.** > 41 µM

**Q.** What about the IC50 ([2]; hPAR2 IPpone IC50 (μM)) of the same compound?
**A.** > 100 µM

**Q.** Which IC50 [1, 3] does the source give for `OC(c1ncc[nH]1)c1ccc(F)cc1N1CC=CC1` (single isomer, unassigned) [Example 18, (2-(2,5-dihydro-1H-pyrrol-1-yl)-4-fluorophenyl)(1H-imidazol-2-yl)methanol] here?
**A.** 4.28 µM

**Q.** And the IC50 [2, 4]?
**A.** 0.9 µM

**Q.** With `OC(c1ncc[nH]1)c1ccc(F)cc1N1CC=CC1` (single isomer, unassigned) [Example 19, (2-(2,5-dihydro-1H-pyrrol-1-yl)-4-fluorophenyl) (1H-imidazol-2-yl)methanol] as the compound, how does the IC50 [1, 3] read?
**A.** > 100 µM

**Q.** What about the IC50 [2, 4] of the same compound?
**A.** 93 µM

**Q.** How did the IC50 [1, 5] turn out when `CCc1coc2c(F)ccc([C@@H](O)c3ncc[nH]3)c12` (single isomer, unassigned) [Example 41] was run?
**A.** 2.19 µM

**Q.** What about the IC50 [2, 6] of the same compound?
**A.** 26 µM

**Q.** Which results are given for `OC(c1ncc[nH]1)c1ccc(F)c2occ(C3CC3)c12` (single isomer, unassigned) [Example 44, (3-Cyclopropyl-7-fluorobenzofuran-4-yl)(1H-imidazol-2-yl)methanol]?
**A.** IC50 [1, 3]: > 41 µM; IC50 [2, 4]: 6.54 µM

**Q.** Which results are given for `OC(c1ncc[nH]1)c1ccc(F)c2occ(C3CC3)c12` (single isomer, unassigned) [Example 45, (3-Cyclopropyl-7-fluorobenzofuran-4-yl)(1H-imidazol-2-yl)methanol]?
**A.** IC50 [1, 3]: 6.07 µM; IC50 [2, 4]: 0.63 µM

**Q.** How did the IC50 [1, 3] turn out when `Cn1ccc2c(F)ccc(C(O)c3ncc[nH]3)c21` (single isomer, unassigned) [Example 56, (4-Fluoro-1-methyl-1H-indol-7-yl)(1H-imidazol-2-yl)methanol] was run?
**A.** > 41.6 µM

**Q.** What about the IC50 [2, 4] of the same compound?
**A.** > 100 µM

**Q.** With `CCCc1cc(F)ccc1C(O)c1ncc[nH]1` (stereo not shown) [Example 1, (4-Fluoro-2-propylphenyl)(1H-imidazol-2-yl)methanol] as the compound, how does the IC50 ([2]; hPAR2 IPpone IC50 (μM)) read?
**A.** 2.93 µM

**Q.** What does the source list for `CCCc1cc(F)ccc1[C@@H](O)c1ncc[nH]1` [Example 2, (R)-(4-fluoro-2-propylphenyl)(1H-imidazol-2-yl)methanol]?
**A.** IC50 [1, 3]: > 41 µM; IC50 [2, 4]: > 100 µM

**Q.** For `OC(c1ncc[nH]1)c1ccccc1C1=CCCC1` (stereo not shown) [Example 4, (2-Cyclopentenylphenyl)(1H-imidazol-2-yl)methanol], which IC50 [1, 3] is on record?
**A.** 16.6 µM

**Q.** And the IC50 [2, 4]?
**A.** 6.27 µM

**Q.** For `OC(c1ncc[nH]1)c1ccc(F)cc1C1=CCCC1` (stereo not shown) [Example 5, (2-Cyclopentenyl-4-fluorophenyl)(1H-imidazol-2-yl)methanol], which IC50 [1, 3] is on record?
**A.** 13.7 µM

**Q.** What about the IC50 [2, 4] of the same compound?
**A.** 5.18 µM

**Q.** Which results are given for `OC(c1ncc[nH]1)c1ccc(F)cc1C1CCCC1` (stereo not shown) [Example 6, (2-Cyclopentyl-4-fluorophenyl)(1H-imidazol-2-yl)methanol]?
**A.** IC50 [1, 3]: 9.57 µM; IC50 [2, 4]: 5 µM

**Q.** For `OC(c1ncc[nH]1)c1ccc(F)cc1C1CCC1` (stereo not shown) [Example 7, (2-Cyclobutyl-4-fluorophenyl)(1H-imidazol-2-yl)methanol], which IC50 [1, 3] is on record?
**A.** 7.85 µM

**Q.** What about the IC50 [2, 4] of the same compound?
**A.** 11.5 µM

**Q.** With `C/C=C/c1cc(F)ccc1C(O)c1ncc[nH]1` (stereo not shown) [Example 8, (E)-(4-Fluoro-2-(prop-1-enyl)phenyl)(1H-imidazol-2-yl)methanol] as the compound, how does the IC50 [1, 3] read?
**A.** 5.1 µM

**Q.** And the IC50 [2, 4]?
**A.** 5.64 µM

**Q.** Which results are given for `C/C=C\c1cc(F)ccc1C(O)c1ncc[nH]1` (stereo not shown) [Example 9, (Z)-(4-Fluoro-2-(prop-1-enyl)phenyl)(1H-imidazol-2-yl)methanol]?
**A.** IC50 [1, 3]: 6.26 µM; IC50 [2, 4]: 9.66 µM

**Q.** `CCCc1c(C(O)c2ncc[nH]2)ccc(F)c1F` (stereo not shown) [Example 10, (3,4-Difluoro-2-propylphenyl)(1H-imidazol-2-yl)methanol] was tested. Which IC50 [1, 3] did it give?
**A.** 5.9 µM

**Q.** What about the IC50 [2, 4] of the same compound?
**A.** 1.66 µM

**Q.** Which IC50 [1, 5] does the source give for `CCCc1c(Cl)cccc1C(O)c1ncc[nH]1` (stereo not shown) [Example 13, (3-Chloro-2-propylphenyl)(1H-imidazol-2-yl)methanol] here?
**A.** 12.4 µM

**Q.** And the IC50 [2, 6]?
**A.** 5.45 µM

**Q.** Which results are given for `OC(c1ncc[nH]1)c1ccc(F)cc1N1CCCC1` (stereo not shown) [Example 14, (4-Fluoro-2-(pyrrolidin-1-yl)phenyl)(1H-imidazol-2-yl)methanol]?
**A.** IC50 ([1]; hPAR2 FLPR (Trypsin) IC50 (μM)): 16.9 µM; IC50 ([2]; hPAR2 IPpone IC50 (μM)): 1.52 µM

**Q.** What does the source list for `OC(c1ncc[nH]1)c1ccc(F)cc1N1CC=CC1` (stereo not shown) [Example 17, (2-(2,5-dihydro-1H-pyrrol-1-yl)-4-fluorophenyl)(1H-imidazol-2-yl)methanol]?
**A.** IC50 [1, 3]: 8.75 µM; IC50 [2, 4]: 1.05 µM

**Q.** With `OC(c1ncc[nH]1)c1ccc(F)cc1N1CCC1` (stereo not shown) [Example 20, (2-(Azetidin-1-yl)-4-fluorophenyl)(1H-imidazol-2-yl)methanol] as the compound, how does the IC50 [1, 3] read?
**A.** 18.6 µM

**Q.** What about the IC50 [2, 4] of the same compound?
**A.** 4.5 µM

**Q.** `OC(c1ncc[nH]1)c1cccc(Cl)c1-n1cccn1` (stereo not shown) [Example 21, (3-Chloro-2-(1H-pyrazol-1-yl)phenyl) (1H-imidazol-2-yl)methanol] was tested. Which IC50 [1, 3] did it give?
**A.** 40.3 µM

**Q.** And the IC50 [2, 4]?
**A.** 6.4 µM

**Q.** For `OC(c1ncc[nH]1)c1ccc(F)c(F)c1-n1cccn1` (stereo not shown) [Example 22, (3,4-Difluoro-2-(1H-pyrazol-1-yl)phenyl)(1H-imidazol-2-yl)methanol], which IC50 [1, 3] is on record?
**A.** 20 µM

**Q.** And the IC50 [2, 4]?
**A.** 4.6 µM

**Q.** How did the IC50 [1, 3] turn out when `OC(c1ncc[nH]1)c1ccc(F)cc1-n1cccn1` (stereo not shown) [Example 23, (4-Fluoro-2-(1H-pyrazol-1-yl)phenyl)(1H-imidazol-2-yl)methanol] was run?
**A.** 25.4 µM

**Q.** What about the IC50 [2, 4] of the same compound?
**A.** 7.21 µM

**Q.** How did the IC50 [1, 3] turn out when `CC1(F)CN(c2cc(F)ccc2C(O)c2ncc[nH]2)C1` (stereo not shown) [Example 24, (4-Fluoro-2-(3-fluoro-3-methylazetidin-1-yl)phenyl)(1H-imidazol-2-yl)methanol] was run?
**A.** 16.3 µM

**Q.** What about the IC50 [2, 4] of the same compound?
**A.** 6.73 µM

**Q.** What does the source list for `CC1CN(c2cc(F)ccc2C(O)c2ncc[nH]2)C1` (stereo not shown) [Example 25, (4-Fluoro-2-(3-methylazetidin-1-yl)phenyl)(1H-imidazol-2-yl)methanol]?
**A.** IC50 [1, 3]: 22 µM; IC50 [2, 4]: 6.88 µM

**Q.** How did the IC50 [2, 4] turn out when `OC(c1ncc[nH]1)c1ccc(F)cc1N1CC[C@H](F)C1` (stereo partly drawn) [Example 26, (4-Fluoro-2-((S)-3-fluoropyrrolidin-1-yl)phenyl)(1H-imidazol-2-yl)methanol] was run?
**A.** 3.87 µM

**Q.** Which IC50 [1, 3] does the source give for `OC(c1ncc[nH]1)c1ccc(F)cc1N1CC[C@@H](F)C1` (stereo partly drawn) [Example 27, (4-Fluoro-2-((R)-3-fluoropyrrolidin-1-yl)phenyl)(1H-imidazol-2-yl)methanol] here?
**A.** > 41.6 µM

**Q.** What about the IC50 [2, 4] of the same compound?
**A.** 6.96 µM

**Q.** Which IC50 [2, 6] does the source give for `OC(c1ncc[nH]1)c1ccc(F)c2ccc(C3CC3)n12` (stereo not shown) [Example 39, (3-Cyclopropyl-8-fluoroindolizin-5-yl)(1H-imidazol-2-yl)methanol] here?
**A.** 13.2 µM

**Q.** `Cn1ccc2c(F)ccc(C(O)c3ncc[nH]3)c21` (stereo not shown) [Example 54, (4-Fluoro-1-methyl-1H-indol-7-yl)(1H-imidazol-2-yl)methanol] was tested. Which IC50 [1, 3] did it give?
**A.** 6.15 µM

**Q.** How did the IC50 [1, 3] turn out when `OC(c1ncc[nH]1)c1cccc2cc3n(c12)CCC3` (stereo not shown) [Example 58, (2,3-Dihydro-1H-pyrrolo[1,2-a]indol-5-yl)(1H-imidazol-2-yl)methanol] was run?
**A.** > 41.6 µM

**Q.** `Cn1ncc2c(F)ccc(C(O)c3ncc[nH]3)c21` (stereo not shown) [Example 62, (4-Fluoro-1-methyl-1H-indazol-7-yl)(1H-imidazol-2-yl)methanol] was tested. Which IC50 [2, 4] did it give?
**A.** 3.38 µM

**Q.** How did the IC50 [1, 3] turn out when `CCc1coc2c(F)ccc(C(O)c3ncn[nH]3)c12` (stereo not shown) [Example 63, (3-Ethyl-7-fluorobenzofuran-4-yl)(1H-1,2,4-triazol-5-yl)methanol] was run?
**A.** 15.6 µM
